Data on eight compounds can be found in ChEMBL document CHEMBL1138015, “A 13C NMR approach to categorizing potential limitations of alpha,beta-unsaturated carbonyl systems in drug-like molecules” (Bioorg Med Chem Lett, 2004).

One may read the IC50 as the concentration that gives 50% inhibition. Low readings indicate higher potency, high ones lower potency.

Data set [1] concerns the target T1, Vascular endothelial growth factor receptor 2 (Homo sapiens, UniProt P35968). As to the kind of experiment: Inhibition of Vascular endothelial growth factor receptor 2(KDR) without DTT (dithiothreitol).
Data set [2] has as its target T1, Vascular endothelial growth factor receptor 2. As to the kind of experiment: Inhibition of Vascular endothelial growth factor receptor 2(KDR) with DTT (dithiothreitol).
Data set [3] can be described thus: Percent remaining after incubation with NADPH in S9 cell was determined. The data set is classed as ADME, cell-based.

T1 sequence (P35968 whole entry): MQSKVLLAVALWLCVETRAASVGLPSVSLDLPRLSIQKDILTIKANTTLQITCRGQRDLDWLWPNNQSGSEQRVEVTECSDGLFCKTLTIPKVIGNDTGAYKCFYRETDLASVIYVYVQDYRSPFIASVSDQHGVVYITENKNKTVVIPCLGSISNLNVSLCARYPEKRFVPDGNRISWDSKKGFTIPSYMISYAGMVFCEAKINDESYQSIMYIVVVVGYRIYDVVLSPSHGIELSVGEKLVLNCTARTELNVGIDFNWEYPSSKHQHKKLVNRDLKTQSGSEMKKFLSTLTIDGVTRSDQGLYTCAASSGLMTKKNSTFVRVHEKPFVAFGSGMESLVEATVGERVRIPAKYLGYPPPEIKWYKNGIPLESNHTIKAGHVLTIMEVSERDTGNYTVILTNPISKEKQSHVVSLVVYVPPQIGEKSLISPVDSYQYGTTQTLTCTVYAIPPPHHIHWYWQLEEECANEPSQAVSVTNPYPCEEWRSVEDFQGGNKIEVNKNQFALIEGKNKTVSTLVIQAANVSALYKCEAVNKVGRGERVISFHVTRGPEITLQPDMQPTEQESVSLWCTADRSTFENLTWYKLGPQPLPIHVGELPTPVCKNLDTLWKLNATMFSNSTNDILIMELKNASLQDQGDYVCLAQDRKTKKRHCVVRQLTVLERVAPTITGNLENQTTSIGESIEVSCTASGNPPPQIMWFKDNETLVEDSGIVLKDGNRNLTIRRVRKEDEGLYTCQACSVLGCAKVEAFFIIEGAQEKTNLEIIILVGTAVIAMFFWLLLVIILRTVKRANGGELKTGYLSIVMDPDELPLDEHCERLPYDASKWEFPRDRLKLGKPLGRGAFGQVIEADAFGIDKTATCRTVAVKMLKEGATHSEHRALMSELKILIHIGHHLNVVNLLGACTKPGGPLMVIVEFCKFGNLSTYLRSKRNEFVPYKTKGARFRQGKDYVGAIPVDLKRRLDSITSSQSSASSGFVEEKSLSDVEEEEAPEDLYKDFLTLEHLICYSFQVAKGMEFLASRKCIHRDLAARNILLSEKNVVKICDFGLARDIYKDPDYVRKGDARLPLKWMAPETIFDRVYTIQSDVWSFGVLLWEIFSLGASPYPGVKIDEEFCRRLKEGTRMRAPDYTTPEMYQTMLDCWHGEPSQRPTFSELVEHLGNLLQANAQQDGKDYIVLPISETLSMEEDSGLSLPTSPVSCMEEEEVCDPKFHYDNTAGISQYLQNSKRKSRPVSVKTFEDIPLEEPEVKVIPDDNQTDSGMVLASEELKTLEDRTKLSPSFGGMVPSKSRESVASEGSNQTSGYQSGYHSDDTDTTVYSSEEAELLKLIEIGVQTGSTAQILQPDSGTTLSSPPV

In the case of `O=C1Nc2ccccc2S/C1=C\c1c[nH]c2c(C(=O)N3CCC(N4CCCCC4)CC3)cccc12`, the IC50 in data set [1] was 720 nM; in data set [2], 170 nM.

Turning to `O=C1Nc2ccccc2S/C1=C\c1c[nH]c2cc(OCCN3CCOCC3)ccc12`, the IC50 in data set [1] was 290 nM; in data set [2] it was 160 nM.

As to `CCN(CC)CCc1c(C)[nH]c(/C=C2\C(=O)NN=C2C2CC2)c1C`, the IC50 stood at 2500 nM in data set [1] and 840 nM in data set [2]. Also, the Remaining activity in data set [3] is reported as 80%.

Consider `O=C1NN=C(c2cnccn2)/C1=C/c1cc2ccccc2[nH]1`, for which the IC50 in data set [1] stood at 410 nM; in data set [2], 40000 nM.

In the case of `Cc1[nH]c(/C=C2\C(=O)NN=C2c2cnccn2)c(C)c1CN(C)C`, in data set [3], the Remaining activity worked out at 18%.

In the case of `O=C1NN=C(c2cnccn2)/C1=C/c1[nH]c2ccccc2c1-c1ccccc1`, the IC50 stood at 20 nM in data set [1] and 470 nM in data set [2].

Turning to `Cc1c(/C=C2\C(=O)NN=C2c2cnccn2)[nH]c2ccccc12`, the IC50 in data set [1] was found to be 60 nM; in data set [2], 140 nM.

Consider `CCN(CC)CCc1c(C)[nH]c(/C=C2\C(=O)NN=C2c2cnccn2)c1C`, for which the IC50 in data set [1] came out at 210 nM; in data set [2], 80 nM. The compound further had a Remaining activity in data set [3] of 72%.
